In patent US20220104492A1, “PYRIDAZINIUM COMPOUNDS FOR USE IN A METHOD OF CONTROLLING UNWANTED PLANT GROWTH” (SYNGENTA CROP PROTECTION AG, priority 2019, published 2022):
Where two headings read alike, the source gives them in different places.

How the values were obtained:
Experiment in all cases: Post-emergence efficacy (glasshouse, spray application)
Assay type in all cases: in vivo
[1] = system: Amaranthus palmeri (AMAPA); conditions: 312 h, read-out: Control of weed species after post-emergence application, AMAPA
Description: (§1) Seeds of a variety of test species were sown in standard soil in pots. After cultivation for 14 days (post-emergence) under controlled conditions in a glasshouse (at 24/16° C., day/night; 14 hours light; 65 humidity), the plants were sprayed with an aqueous spray solution derived from the dissolution of the technical active ingredient formula (I) in a small amount of acetone and a special solvent and emulsifier mixture referred to as IF50 (11.12% Emulsogen EL360 TM+44.44% N-methylpyrrolidone+44.44% Dowanol DPM glycol ether), to create a 50 g/l solution which was then diluted to required concentration using a solution of 0.25% or 1% Empicol ESC70 (Sodium lauryl ether sulphate)+1% ammonium sulphate in water as diluent.
(§2) The test plants were then grown in a glasshouse under controlled conditions (at 24/16° C., day/night; 14 hours light; 65% humidity) and watered twice daily. After 13 days the test was evaluated (100=total damage to plant; 0=no damage to plant).
(§3) Ipomoea hederacea (IPOHE), Euphorbia heterophylla (EPHHL), Chenopodium album (CHEAL), Amaranthus palmeri (AMAPA), Lolium perenne (LOLPE), Digitaria sanguinalis (DIGSA), Eleusine indica (ELEIN), Echinochloa crus-galli (ECHCG), Setaria faberi (SETFA)

[2] = system: Chenopodium album (CHEAL); conditions: 312 h, read-out: Control of weed species after post-emergence application, CHEAL
Description: as §1, §2, §3

[3] = system: Digitaria sanguinalis (DIGSA); conditions: 312 h, read-out: Control of weed species after post-emergence application, DIGSA
Description: as §1, §2, §3

[4] = system: Echinochloa crus-galli (ECHCG); conditions: 312 h, read-out: Control of weed species after post-emergence application, ECHCG
Description: as §1, §2, §3

Eleusine indica (ELEIN) = conditions: 312 h, read-out: Control of weed species after post-emergence application, ELEIN
Description: as §1, §2, §3

[5] = system: Euphorbia heterophylla (EPHHL); conditions: 312 h, read-out: Control of weed species after post-emergence application, EPHHL
Description: as §1, §2, §3

[6] = system: Ipomoea hederacea (IPOHE); conditions: 312 h, read-out: Control of weed species after post-emergence application, IPOHE
Description: as §1, §2, §3

Lolium perenne (LOLPE) = conditions: 312 h, read-out: Control of weed species after post-emergence application, LOLPE
Description: as §1, §2, §3

Setaria faberi (SETFA) = conditions: 312 h, read-out: Control of weed species after post-emergence application, SETFA
Description: as §1, §2, §3

[7] = Application rate 500 g/Ha, evaluated after 13 days, 100=total damage to plant, 0=no damage to plant

| SMILES | pest or weed control at 500 g/ha [1, 7] | pest or weed control at 500 g/ha [2, 7] | pest or weed control at 500 g/ha [3, 7] | pest or weed control at 500 g/ha [4, 7] | pest or weed control at 500 g/ha (Eleusine indica (ELEIN); [7]) | pest or weed control at 500 g/ha [5, 7] | pest or weed control at 500 g/ha [6, 7] | pest or weed control at 500 g/ha (Lolium perenne (LOLPE); [7]) | pest or weed control at 500 g/ha (Setaria faberi (SETFA); [7]) | pest or weed control at 500 g/ha [1] | pest or weed control at 500 g/ha [2] | pest or weed control at 500 g/ha [3] | pest or weed control at 500 g/ha [4] | pest or weed control at 500 g/ha (Eleusine indica (ELEIN)) | pest or weed control at 500 g/ha [5] | pest or weed control at 500 g/ha [6] | pest or weed control at 500 g/ha (Lolium perenne (LOLPE)) | pest or weed control at 500 g/ha (Setaria faberi (SETFA)) |
| --- | --- | --- | --- | --- | --- | --- | --- | --- | --- | --- | --- | --- | --- | --- | --- | --- | --- | --- |
| CN(CC(=O)O)C(=O)CC[n+]1ccc(-c2ncccn2)cn1 [Compound A24] | 90% | 90% | 100% | 40% | 50% | 90% | 40% | 30% | 70% |  |  |  |  |  |  |  |  |  |
| CC(C)(CC(=O)O)NC(=O)CC[n+]1ccc(-c2ncccn2)cn1 [Compound A36] | 100% | 100% | 100% | 40% | 100% | 90% | 20% | 90% | 100% |  |  |  |  |  |  |  |  |  |
| O=C(O)CS(=O)(=O)CC[n+]1ccc(-c2ncccn2)cn1 [Compound A15] | 70% | 20% | 60% | 20% | 70% | 70% | 10% | 10% | 50% |  |  |  |  |  |  |  |  |  |
| O=C(O)CNC(=O)C[n+]1ccc(-c2ncccn2)cn1 [Compound A1, 2-[[2-(4-pyrimidin-2-ylpyridazin-1-ium-1-yl)acetyl]amino]acetic acid 2,2,2-trifluoroacetate] |  |  |  |  |  |  |  |  |  | 100% | 100% | 90% | 70% | 90% | 90% | 100% | 70% | 60% |
| O=C(O)CNC(=O)C[n+]1ccc(-c2ccccn2)cn1 [Compound A26] | 100% | 100% | 70% | 90% | 80% | 100% | 40% | 40% | 80% |  |  |  |  |  |  |  |  |  |
| CN(CC(=O)O)C(=O)C[n+]1ccc(-c2ccccn2)cn1 [Compound A34] | 90% | 0% | 20% | 30% | 20% | 50% | 40% | 10% | 40% |  |  |  |  |  |  |  |  |  |
| CCC(C)C(NC(=O)C[n+]1ccc(-c2ncccn2)cn1)C(=O)O (stereo not drawn) [Compound A5] | 100% | 100% | 10% | 30% | 10% | 100% | 60% | 0% | 10% |  |  |  |  |  |  |  |  |  |
| CC(C)CC(NC(=O)C[n+]1ccc(-c2ncccn2)cn1)C(=O)O (stereo not drawn) [Compound A6] | 100% | 100% | 50% | 70% | 90% | 100% | 90% | 40% | 50% |  |  |  |  |  |  |  |  |  |
| CC(NC(=O)C[n+]1ccc(-c2ncccn2)cn1)C(=O)O (stereo not drawn) [Compound A12] | 100% | 100% | 90% | 70% | 100% | 100% | 70% | 50% | 70% |  |  |  |  |  |  |  |  |  |
| CC(=O)N(CC[n+]1ccc(-c2ncccn2)cn1)CC(=O)O [Compound A31] | 100% | 90% | 80% | 60% | 60% | 90% | 50% | 20% | 60% |  |  |  |  |  |  |  |  |  |
| CN(CC(=O)O)C(=O)C[n+]1ccc(-c2ncccn2)cn1 [Compound A8, 2-[methyl-[2-(4-pyrimidin-2-ylpyridazin-1-ium-1-yl)acetyl]amino]acetic acid 2,2,2-trifluoroacetate] | 100% | 100% | 70% | 80% | 90% | 100% | 60% | 40% | 70% |  |  |  |  |  |  |  |  |  |
| O=C(O)COC[n+]1ccc(-c2ncccn2)cn1 [Compound A39] | 100% | 80% | 100% | 80% | 60% | 90% | 80% | 70% | 70% |  |  |  |  |  |  |  |  |  |
| CCC(NC(=O)C[n+]1ccc(-c2ncccn2)cn1)C(=O)O (stereo not drawn) [Compound A2] | 100% | 90% | 80% | 90% | 70% | 100% | 100% | 40% | 40% |  |  |  |  |  |  |  |  |  |
| O=C(O)CNC(=O)CC[n+]1ccc(-c2ncccn2)cn1 [Compound A14] | 100% | 90% | 100% | 100% | 100% | 100% | 100% | 100% | 100% |  |  |  |  |  |  |  |  |  |
| NC(=O)CC(NC(=O)C[n+]1ccc(-c2ncccn2)cn1)C(=O)O (stereo not drawn) [Compound A7] | 10% | 60% | 40% | 30% | 30% | 30% | 0% | 0% | 40% |  |  |  |  |  |  |  |  |  |
| O=C(O)CNC(=O)CNC(=O)C[n+]1ccc(-c2ncccn2)cn1 [Compound A10] | 90% | 60% | 80% | 70% | 90% | 90% | 40% | 40% | 80% |  |  |  |  |  |  |  |  |  |
